Data as given in patent US20150045301A1, “METHODS AND USES OF ANP (ATRIAL NATRIURETIC PEPTIDE), BNP (BRAIN NATRIURETIC PEPTIDE) AND CNP (C-TYPE NATRIURETIC PEPTIDE)-RELATED PEPTIDES AND DERIVATIVES THEREOF FOR TREATMENT OF RETINAL DISORDERS AND DISEASES” (KALOS Therapeutics, Inc., priority 2011, published 2015).
“And” between values parts separate entries of the source, which are not always exact repeats. Equal values may be shown once. “Also recorded” adds a separate entry of the source.

Key:
[1] = test system: Human Pancreatic Adenocarcinoma Cells (HPAC); assay: HPAC cell viability / anti-cell proliferative assay (Calbiochem Rapid Cell Proliferation Kit, OD 450 nm); assay type: cell-based; conditions: 48 hours; for Optical Densities in 96_Well Plate, Average: average of 5 wells; for Optical Densities in 96_Well Plate, single well: one of 5 replicate wells
Description: Human Pancreatic Adenocarcinoma Cells (HPAC) cells were obtained from ATCC and propagated in Dulbecco's modified Eagle's medium and Ham's F12 medium (DME-F12) (1:1) containing 2.5 mM glutamine, […], 5 ug/mL transferrin, 1 ng/mL EGF (epidermal growth factor), plus 5% FBS (fetal bovine serum). Cell cultures were incubated at 37° C., 5% CO2 in a 100% humidity atmosphere. The cells were routinely brought to confluence in T-flasks, rinsed with phosphate buffered saline(PBS), and treated with trypsin for 5 min at room temp. The trypsinized cells were rinsed from the plate with 10 mL medium and counted. Viability at subculturing was generally ≧95%.
Approximately 10,000 cells in 100 uL of medium were placed in each well of a 96-well plate and incubated over night. Peptides having the following sequences were used: Arg-15-Cys (RSSCAGAALSPLGAC); Pro-15-Val (PNEEAGAALSPLPEV); Ala-8-Leu (AGALSPL); C-ANP 4-23 ([…]) and, VDL ([…]). The peptides were dissolved in PBS and sterile filtered. The peptides were diluted into the cell culture medium to the following final concentrations: 1, 0.3, 0.1, 0.03, and 0.01 uM. Each peptide was tested in 5 replicate wells. The cultures were incubated for an additional 48 hours at 37° C.
The viability of the cells was determined using a Calbiochem Rapid Cell Proliferation Kit (catalog number QIA127). Ten uL of Calbiochem color reagent was added to each well and incubated for an additional 1.5 hours at 37° C. Optical densities were read at 450 nm using a Molecular Devices ThermoMax microplate reader. The plate template is shown in Table I (unlabeled wells contained cells but no peptide and were used as blanks). Results are presented in Table I, and are graphically illustrated in FIGS. 1 and 2.

[2] = test system: cancer cells; assay: Anti-cancer activity of peptides with the conserved motif (cell proliferative assay); assay type: cell-based; conditions: statement in the description
Description: This example describes activity of peptides having a conserved motif and conserved amino acids predicted to be functional in the motif. (Table III). This example also describes additional exemplary peptide sequences having a conserved motif predicted to have activity (Table IV). Notations “Res 1, Res 2” etc., herein refer by single letter abbreviation the amino acid in the exemplary peptide 8-mer. “Activity” can be determined by a cell proliferative assay, such as an assay described herein or known to one of skill in the art. Of course, peptides exemplified in Table IV can include the conserved motif peptide as part of a larger protein. The SEQ ID NO is the same as the peptide number. Each of these exemplary peptides can be analyzed in vitro, ex vivo, and in vivo for anti-cell proliferative activity using an assay, such as a cell based in vitro assay described in Examples 1 or 4.

[3] = test system: Human RPE cells (ARPE-19); assay: Transepithelial electrical resistance (TEER) of RPE cell layer treated with VEGF; assay type: cell-based; conditions: ARPE-19 cell layer
[4] = test system: cancer cells; conditions: comparison between natriuretic peptides, Vesely 2008; cited from earlier work
[5] = target: T1, NPRC (Homo sapiens, UniProt P17342); conditions: comparison between natriuretic peptides, Vesely 2008; cited from earlier work
T1 sequence (P17342 27-541): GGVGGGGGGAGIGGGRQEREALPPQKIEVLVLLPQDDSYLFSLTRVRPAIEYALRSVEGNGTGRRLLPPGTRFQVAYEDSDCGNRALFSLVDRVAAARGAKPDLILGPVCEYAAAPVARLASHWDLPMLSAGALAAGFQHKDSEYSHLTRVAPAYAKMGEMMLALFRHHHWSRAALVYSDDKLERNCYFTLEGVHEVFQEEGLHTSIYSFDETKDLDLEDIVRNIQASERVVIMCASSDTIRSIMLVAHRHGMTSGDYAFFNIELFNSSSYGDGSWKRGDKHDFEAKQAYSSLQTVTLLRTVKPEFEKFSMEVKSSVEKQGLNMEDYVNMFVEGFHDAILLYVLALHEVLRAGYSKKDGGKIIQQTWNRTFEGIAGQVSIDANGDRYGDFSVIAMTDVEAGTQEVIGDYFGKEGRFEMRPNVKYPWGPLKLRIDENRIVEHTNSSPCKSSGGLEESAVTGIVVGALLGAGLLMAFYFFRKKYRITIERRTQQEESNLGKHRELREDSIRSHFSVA

[6] = target: T2, NPRA (Homo sapiens, UniProt P16066); conditions: comparison between natriuretic peptides, Vesely 2008; cited from earlier work
T2 sequence (P16066 33-1061): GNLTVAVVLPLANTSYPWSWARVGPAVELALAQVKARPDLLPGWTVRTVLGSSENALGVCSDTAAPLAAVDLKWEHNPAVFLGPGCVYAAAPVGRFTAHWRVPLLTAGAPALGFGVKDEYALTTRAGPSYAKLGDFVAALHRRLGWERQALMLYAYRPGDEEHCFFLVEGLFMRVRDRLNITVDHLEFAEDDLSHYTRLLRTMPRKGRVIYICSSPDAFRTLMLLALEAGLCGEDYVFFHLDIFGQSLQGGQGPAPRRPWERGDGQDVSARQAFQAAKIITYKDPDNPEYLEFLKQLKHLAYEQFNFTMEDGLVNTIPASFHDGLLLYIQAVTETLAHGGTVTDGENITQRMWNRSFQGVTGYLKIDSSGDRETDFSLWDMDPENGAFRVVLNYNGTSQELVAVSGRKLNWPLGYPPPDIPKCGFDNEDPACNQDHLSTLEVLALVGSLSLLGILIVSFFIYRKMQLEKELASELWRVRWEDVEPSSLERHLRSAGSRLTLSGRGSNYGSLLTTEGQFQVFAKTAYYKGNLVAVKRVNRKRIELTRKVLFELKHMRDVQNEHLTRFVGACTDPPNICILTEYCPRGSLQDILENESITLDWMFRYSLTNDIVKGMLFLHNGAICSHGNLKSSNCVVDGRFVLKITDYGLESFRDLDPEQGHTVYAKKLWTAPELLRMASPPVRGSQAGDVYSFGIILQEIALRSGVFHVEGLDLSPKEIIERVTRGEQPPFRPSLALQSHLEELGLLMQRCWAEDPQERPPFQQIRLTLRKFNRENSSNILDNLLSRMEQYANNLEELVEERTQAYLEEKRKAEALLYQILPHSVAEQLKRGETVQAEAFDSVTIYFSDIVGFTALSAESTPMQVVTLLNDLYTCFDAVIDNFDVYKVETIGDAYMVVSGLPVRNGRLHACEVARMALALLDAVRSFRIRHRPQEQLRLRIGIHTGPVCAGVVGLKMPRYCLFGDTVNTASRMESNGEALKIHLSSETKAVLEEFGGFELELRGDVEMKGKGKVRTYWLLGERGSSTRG

Substance | Optical Densities in 96_Well Plate, Average ([1]; peptide 0.01 μM) | Optical Densities in 96_Well Plate, single well ([1]; peptide 0.01 μM) | Optical Densities in 96_Well Plate, Average ([1]; peptide 0.03 μM) | Optical Densities in 96_Well Plate, single well ([1]; peptide 0.03 μM) | Optical Densities in 96_Well Plate, Average ([1]; peptide 0.1 μM) | Optical Densities in 96_Well Plate, single well ([1]; peptide 0.1 μM) | Optical Densities in 96_Well Plate, Average ([1]; peptide 0.3 μM) | Optical Densities in 96_Well Plate, single well ([1]; peptide 0.3 μM) | Optical Densities in 96_Well Plate, Average ([1]; peptide 1.0 μM) | Optical Densities in 96_Well Plate, single well ([1]; peptide 1.0 μM) | Activity of peptides sharing the conserved motif [2] | Effect on VEGF-induced decrease in trans-epithelial electrical resistance (TEER) ([3]; concurrent treatment with VEGF 10 ng/ml, ANP luM) | Relative potency of NPs [4] | Relative binding affinity at NPRC [5] | Relative binding affinity at NPRA [6] | Effect on transepithelial electrical resistance (TEER) ([3]; VEGF 10 ng/ml)
AGALSPL [Ala-8-Leu, 8-mer conserved motif peptide] | 0.937 | 0.744 and 0.878 and 1.000 and 0.892 and 1.169 | 0.976 | 0.892 and 0.937 and 0.989 and 0.921 and 1.139 | 0.991 | 0.832 and 1.006 and 1.031 and 0.910 and 1.174 | 1.002 | 0.784 and 0.802 and 0.998 and 1.357 and 1.070 | 0.985 | 0.732 and 1.216 and 0.954 and 0.834 and 1.189 |  |  |  |  |  | 
ANP: atrial natriuretic peptide; Table III sequence SLRRSSCFGGRMDRIGAQSGLGCNSFRY [reference compound] | 0.908 | 0.981 and 0.815 and 0.822 and 0.965 and 0.955 | 0.935 | 0.948 and 0.882 and 0.911 and 0.951 and 0.982 | 0.838 | 0.884 and 0.889 and 0.907 and 0.862 and 0.650 | 0.974 | 1.001 and 0.889 and 0.837 and 0.934 and 1.209 | 0.914 | 1.018 and 0.819 and 0.954 and 0.829 and 0.951 | have activity | attenuated the effect of VEGF; also recorded: This decrease is attenuated by ANP | greater potency observed for ANP than CNP | higher binding affinities at NPRA and NPRC | higher binding affinities at NPRA and NPRC | 
BNP: brain natriuretic peptide; motif in Table III FGKRMDRI |  |  |  |  |  |  |  |  |  |  | have activity |  |  |  |  | 
CNP: C-type natriuretic peptide; motif in Table III FGLKLDRI |  |  |  |  |  |  |  |  |  |  | have activity; also recorded: less active than ANP, LANP, KP or VDL |  | greater potency of CNP than BNP | higher binding affinity than BNP specifically at NPRC |  | 
EVVPPQVLSEPNEEAGAALSPLPEVPPWTGEVSPAQR [KT-220 (VDL), vessel dilator VDL] |  |  |  |  |  |  |  |  |  |  | have activity |  |  |  |  | 
KP: ANP-related peptide; motif in Table III LKSKLRAL (SSDRSALLKSKLRALLTAPR; Kaliuretic peptide; UniProt P01160 104-123, looked up) |  |  |  |  |  |  |  |  |  |  | have activity |  |  |  |  | 
LANP: ANP-related peptide; motif in Table III FKNLLDHL (NPMYNAVSNADLMDFKNLLDHLEEKMPLED; Long-acting natriuretic peptide; UniProt P01160 26-55, looked up) |  |  |  |  |  |  |  |  |  |  | have activity |  |  |  |  | 
PNEEAGAALSPLPEV [Pro-15-Val] | 0.916 | 0.907 and 0.905 and 0.633 and 1.209 and 0.928 | 0.894 | 0.892 and 0.765 and 0.693 and 1.151 and 0.970 | 0.918 | 0.680 and 0.895 and 0.893 and 1.156 and 0.964 | 0.916 | 0.875 and 0.817 and 0.855 and 1.024 and 1.010 | 0.948 | 0.856 and 0.752 and 0.802 and 1.083 and 1.248 |  |  |  |  |  | 
RSSCAGAALSPLGAC [Arg-15-Cys] | 0.934 | 0.974 and 0.920 and 0.863 and 0.840 and 1.075 | 0.982 | 1.093 and 0.894 and 0.789 and 0.955 and 1.178 | 0.950 | 1.016 and 0.917 and 0.801 and 0.990 and 1.025 | 0.897 | 0.988 and 0.957 and 0.668 and 0.913 and 0.959 | 0.962 | 1.155 and 1.005 and 0.787 and 0.944 and 0.919 |  |  |  |  |  | 
RSSCFGGRIDRIGAC [C-ANP 4-23, the ANP analog, reference compound] | 0.938 | 0.877 and 0.971 and 0.953 and 0.932 and 0.958 | 0.932 | 0.905 and 0.882 and 0.981 and 0.948 and 0.943 | 0.942 | 0.758 and 1.027 and 0.983 and 0.960 and 0.982 | 0.942 | 0.840 and 0.928 and 1.035 and 0.975 and 0.932 | 0.925 | 0.865 and 0.925 and 0.900 and 0.955 and 0.981 | have activity |  |  |  |  | 
VEGF |  |  |  |  |  |  |  |  |  |  |  |  |  |  |  | lowered resistance
